{"source": "patent US8594942B2", "about": "“Computational method and system for identifying network patterns in complex biological systems data” (Metabolon, Inc., priority 2004, dated 2013)", "key": {"Male Fischer 344 rats": {"tested_on": "Male Fischer 344 rats", "test": "Acetaminophen-induced liver toxicity study: biochemical profiling (LC-MS) of rat liver", "type": "in vivo", "conditions": "rat liver metabolite, single dose p.o.", "protocol": "An acetaminophen-induced liver toxicity study was performed as follows. Male Fischer 344 rats were administered a single dose of acetaminophen (APAP) at 0, 50, 150, 1500 or 2000 mg/kg p.o. (6 rats per group). The 150 mg/kg dose is equivalent to a low overdose level in humans (˜10 g) and 1500 mg/kg is a low toxic dose in rats. The rats were sacrificed at 6, 18, 24, and 48 hr post dosing. Livers of the rats were processed for biochemical profiling, histopathology and gene expression analysis. For the 0, 50 and 1500 mg/kg dose groups, rat urine was collected at −24-0, 0-6, 6-24, and 24-48 hr relative to dosing. Similarly, rat serum was collected at 48 hr for the 0, 50 and 1500 mg/kg groups.\nRat tissue was prepared for LC-MS analysis as follows. Rat liver tissue samples were frozen upon collection. A slice of each frozen sample was placed into a mortar, covered with liquid nitrogen, and ground with a pestle. 100 mg of ground sample was placed in a cryovial, extraction fluid and beads were added, and the sample was further ground and then centrifuged. The supernatant was transferred to a clean cryovial, centrifuged again, and then transferred to a well of a 96-well plate.\nLC-MS analysis of the rat tissue and biofluid samples was performed on an Applied Biosystems Mariner liquid chromatograph coupled with a time of flight mass spectrometer (LC-TOF). The mass resolution for the mass spectrometer employed in this experiment was 0.200 amu. One LC was employed with a splitter that allowed for the eluent to be delivered to two TOF MS instruments, one operating in positive ionization mode, the other in negative ionization mode. Compounds detected by LC-MS with an electrospray ion source were cataloged based on retention times and mass-to-charge ratio (m/z) of the ions characteristic of each peak. Mass spectrometric data were collected from 80-900 amu. Raw LC-MS data were processed using the commercially available software TARGETDB (Thru-Put Systems, Inc., Orlando, Fla.).\nA targeted list of relative responses for peaks and peaks annotated as known compounds was produced from the LC/MS data for the rat liver samples described in Example 1 and is illustrated in FIG. 1. The resulting biochemical profiling data was subjected to Principal Component Analysis (PCA), showing trends over both dose and time (see FIG. 2). The third principal component (x-axis) is plotted against the second principal component (y-axis) for each of the 6, 18, 24 and 48 hr time points for acetaminophen doses 150 mg/kg (yellow), 1500 mg/kg (black), and 2000 mg/kg (green). Each data point represents the average for six animals.\nMathematical models of the trends observed in the PCA plot were developed. […] Trend 1 is a trend of increasing distance from control as the dose increases at any given time point. Trend 2 is a trend of change from one time point to the next that is in the same direction and of increasing magnitude as dose increases. Each of the relative response peaks in the liver biochemical profiling dataset was tested for adherence to the mathematical models to locate the subset of peaks that followed the observed trends. The peaks that adhered to the models were identified as the subset of most interest for further analysis of acetaminophen-induced liver changes. To further investigate the mode of action of acetaminophen, the known compounds in the identified subset were further analyzed using the methods and systems of the present invention.\nUsing the methods and systems of the present invention, another graph was generated depicting the 15 components of interest, from Example 3 above, that were closely related enough to fit on a single graph. […] It should be noted that not only is the perturbation of the 15 compounds of interest depicted in FIG. 5, but the experimental result from any compound measured and depicted in the network of FIG. 5 is shown. […]"}, "rats": {"tested_on": "rats", "conditions": "cited from earlier work"}}, "note": "Entries after “also recorded” stand apart in the source; their conditions may differ."}
{"smiles": "CC(=O)Nc1ccc(O)cc1", "note": "[acetaminophen]", "values": [{"measurement": "Status of L-asparagine", "setting": "Male Fischer 344 rats; FIG. 5 network component 2", "value": "Down Regulated"}, {"measurement": "Status of ‘N’-acetyl-“b”-D-glucosamine", "setting": "Male Fischer 344 rats; FIG. 5 network component 7", "value": "Down Regulated"}, {"measurement": "Status of “a”-ketoglutarate", "setting": "Male Fischer 344 rats; FIG. 5 network component 8", "value": "Down Regulated"}, {"measurement": "Status of L-glutamine", "setting": "Male Fischer 344 rats; FIG. 5 network component 10", "value": "Down Regulated"}, {"measurement": "Status of L-arginine", "setting": "Male Fischer 344 rats; FIG. 5 network component 14", "value": "didn't undergo a significant change; also recorded: No Significant Change"}, {"measurement": "Status of L-cystathionine", "setting": "Male Fischer 344 rats; FIG. 5 network component 17", "value": "Down Regulated"}, {"measurement": "Status of “a”-hetobutyrate", "setting": "Male Fischer 344 rats; FIG. 5 network component 18", "value": "Down Regulated"}, {"measurement": "Status of L-cysteine", "setting": "Male Fischer 344 rats; FIG. 5 network component 19", "value": "Down Regulated"}, {"measurement": "Status of L-serine", "setting": "Male Fischer 344 rats; FIG. 5 network component 21", "value": "Down Regulated"}, {"measurement": "Status of “o”-phosphoethanolamine", "setting": "Male Fischer 344 rats; FIG. 5 network component 23", "value": "Up Regulated"}, {"measurement": "Status of (‘S)-lactate", "setting": "Male Fischer 344 rats; FIG. 5 network component 25", "value": "Down Regulated"}, {"measurement": "Status of Pyruvate", "setting": "Male Fischer 344 rats; FIG. 5 network component 26", "value": "Down Regulated"}, {"measurement": "Status of Phospho‘enol’pyruvate", "setting": "Male Fischer 344 rats; FIG. 5 network component 29", "value": "No Significant Change"}, {"measurement": "Status of GTP", "setting": "Male Fischer 344 rats; FIG. 5 network component 30", "value": "Down Regulated"}, {"measurement": "Status of GDP", "setting": "Male Fischer 344 rats; FIG. 5 network component 31", "value": "didn't undergo a significant change; also recorded: No Significant Change"}, {"measurement": "Status of Phenylpyruvate", "setting": "Male Fischer 344 rats; FIG. 5 network component 32", "value": "Up Regulated"}, {"measurement": "Status of L-phenylalanine", "setting": "Male Fischer 344 rats; FIG. 5 network component 33", "value": "Down Regulated"}, {"measurement": "Status of L-tyrosine", "setting": "Male Fischer 344 rats; FIG. 5 network component 34", "value": "Down Regulated"}, {"measurement": "Status of L-dopa", "setting": "Male Fischer 344 rats; FIG. 5 network component 35", "value": "Down Regulated"}, {"measurement": "Status of glutathione", "setting": "Male Fischer 344 rats; FIG. 5 network component 37", "value": "Up Regulated"}, {"measurement": "low toxic dose in rats", "setting": "rats", "value": 1500, "unit": "mg/kg"}]}
